Measured values reported in patent publication US9364480B2, “Pharmaceutical composition for preventing or treating cancer, containing enoblock as active ingredient” (GWANGJU INSTITUTE OF SCIENCE AND TECHNOLOGY, priority 2012, dated 2016).
Entries after “also recorded” stand apart in the source; their conditions may differ.

Experiments:
[1] = molecular target: T1, enolase in HCT116 cancer cell lysate (Homo sapiens, UniProt P06733); test: Affinity chromatography / Western blot of affinity matrix eluate, cell lysate; assay type: binding
T1 construct: endogenous in cells; host or cells: HCT116 colon carcinoma cells (lysate)
Procedure: (§1) FIG. 4. […] (a) Affinity chromatography study for ENOblock in HCT116 cancer cells. […] (b) Sequence identification for the enolase monomer subunit. […] Mascot scores above 100 were deemed to be significant. […] Twenty micrograms of cell lysate from YD-10B oral cancer cells or Huh7 hepatocytes were used as positive controls. […] As a positive control, ENOblock affinity matrix was incubated with 200 μg of HCT 116 cell lysate; 50 μg cell lysate from HCT116 cancer cells was used as a positive control for the enolase antibody.
(§2) Affinity chromatography was used to identify the cellular target for AP-III-a4. Target identification strategies for the triazine library used in this study are relatively straightforward, because the molecules contain a built-in linker moiety. This allows conjugation to an affinity matrix with reduced risk of compromising biological activity.

purified human enolase = purified human enolase (Homo sapiens, UniProt P06733); test: Affinity matrix binding of purified enolase (Western blot)
Procedure: as §1, §2

[2] = molecular target: T2, Enolase purified from rabbit muscle (Oryctolagus cuniculus, UniProt P25704); test: Enolase activity assay; assay type: biochemical
T2 construct: Enolase purified from rabbit muscle was purchased from Sigma-Aldrich; purchased Sigma-Aldrich; host or cells: rabbit muscle
Procedure: as §1
Enolase purified from rabbit muscle was purchased from Sigma-Aldrich. A single unit of enolase is defined as the amount of enzyme that produces 1 μmol of phosphoenol pyruvate from phospho-D-glycerate/min in standard assay.^52 Enolase activity assay was measured at 37° C. by incubating pure enolase (3-9 U) in a buffer containing 50 mM imidazole-HCl (pH 6.8)(JUNSEI), 2.0 mM MgSO4 (JUNSEI) and 400 mM KCl (JUNSEI) in the absence or presence of ENOblock or NaF (Sigma). The reaction was initiated by adding 1 μmol of 2-phospho-D-glycerate, and the OD was measured after 10 min of reaction time with a spectrophometer at 240 nm.

[3] = system: AKT expression in HCT116 cancer cells; test: AKT Western blot; assay type: cell-based; settings: 24 h treatment
Procedure: FIG. 7. […] (b) Microscopic images of crystal violet stained HCT116 cells invaded onto the transwell inserts (scale bar=100 μm). […] (d) Microscopic images of crystal violet stained HCT116 cells migrated onto the transwell inserts (scale bar=100 μm). […] Cells were treated with 10 nM taxol and 10 nM vincristine, with or without 10 μM ENOblock. Error=SD; *=P<0.05 between the groups indicated on the graph. […] For the AKT Western blot, cells were treated with ENOblock for 24 h; for the Bcl-Xl Western blot, cells were treated with ENOblock for 48 h.

[4] = system: HCT116-xenotransplanted zebrafish; test: Zebrafish tumor cell xenograft model; assay type: in vivo, zebrafish (Danio rerio)
Excerpt: FIG. 9. Toxicological study of ENOblock and in vivo analysis of anticancer activity. (A) Toxicological analysis of ENOblock treatment using the zebrafish larvae system. […] (B) Microscopic assessment of […] post fertilization (dfp) zebrafish larvae exposed to increasing doses of ENOblock. […] Error=SD; *=P<0.05 compared to the DMSO treated group. […] DMSO treatment served as a control. Three representative embryos are shown from each experimental group, and distributed cancer cell foci are designated with blue arrows. […] Error=SD; *=P<0.05 compared to the DMSO-treated group.
Zebrafish embryos were obtained using standard mating conditions^53 and staged for cell xenoplantation at 48 h post fertilization. After staining of cancer cells (described below), embryos were de-chorionized using micro-forceps and anesthetized with 0.0016% tricaine and positioned on their right side on a wet 1.0% agarose pad. Tumor cells were detached from culture dishes using 0.05% trypsin-EDTA and washed twice with PBS at room temperature. Cells were stained with 2 μg/ml DiI diluted in PBS and washed four times: once with FBS, twice with PBS and then once with 10% FBS diluted in PBS. Cells were kept on ice before injection. Cancer cells were counted by microscopy, suspended in 10% FBS and 100 cells were injected into the center of the yolk sac using an injector equipped with borosilicate glass capillaries (PV820 pneumatic picopump, World Precision Instruments). Injected embryos were transferred to a 96-well plate (one embryo/well) containing drug of interest diluted in […] E3 media (without methylene blue) and maintained at the pre-selected incubation temperature.

zebrafish larvae = test: Measurement of glucose uptake in zebrafish (2-NBDG); assay type: in vivo; set-up: 2-NBDG signal in lysed larvae (fluorescent plate reader): dose or concentration left out as unconfirmed
Procedure: FIG. 12. […] (a) Schematic of our approach to measure the effect of ENOblock treatment on […] in zebrafish.
At 72 hpf, larvae were placed into a 96-well plate (6 eggs/well in 200 μL E3 water supplemented with 0.2 mM 2-phenylthiourea; Sigma). Drug of interest was added for […]. The solution was then replaced with E3 water supplemented with 600 μM 2-NBDG and incubated for 3 h. The larva were washed with E3 water and anesthetized with 0.02% tricaine-supplemented E3 water. One larva was then placed on a chamber slide, containing 3% methylcellulose in E3 water, for fluorescent microscopy (Leica DM2500 microscope equipped with a DFC425 C digital camera). Images were captured at 50× magnification. The remaining 5 larvae where lysed with 120 μL of CelLytic M solution (Sigma-Aldrich) and sonication (4° C., 10″/5″ pulse, 10 min). Lysed larvae were centrifuged at 10000 rpm for 10 min. 100 μL of the supernatant was transferred to a 96-well plate and fluorescence was measured with a fluorescent microplate reader (SpectraMAX Gemini XS, Molecular Devices; λex=466 nm […]).

macrophages [5] = test: Foam cell formation from macrophages treated with oleic acid; assay type: cell-based; settings: 10 μM
macrophages [6] = test: Macrophage cytotoxicity (MTT assay); assay type: cell-based
Procedure: FIG. 14. […] Treatment with 3 mM H2O2 for 48 h was used as a positive control.

[7] = system: PEPCK expression in adult zebrafish liver; test: PEPCK expression in adult zebrafish liver; settings: 10 μM, 3 h

T2 sequence (P25704 whole entry): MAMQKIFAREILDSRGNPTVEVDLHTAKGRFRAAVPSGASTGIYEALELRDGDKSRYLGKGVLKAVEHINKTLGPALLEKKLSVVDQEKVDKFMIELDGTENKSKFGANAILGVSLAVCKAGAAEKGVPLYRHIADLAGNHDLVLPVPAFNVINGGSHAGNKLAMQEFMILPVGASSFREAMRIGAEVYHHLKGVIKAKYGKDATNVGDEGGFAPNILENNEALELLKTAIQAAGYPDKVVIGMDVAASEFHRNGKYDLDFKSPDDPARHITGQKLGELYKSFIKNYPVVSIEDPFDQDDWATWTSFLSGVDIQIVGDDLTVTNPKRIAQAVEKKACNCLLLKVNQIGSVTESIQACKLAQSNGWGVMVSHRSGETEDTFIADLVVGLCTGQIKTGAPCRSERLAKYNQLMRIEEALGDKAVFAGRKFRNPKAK
purified human enolase, sequence (P06733 whole entry): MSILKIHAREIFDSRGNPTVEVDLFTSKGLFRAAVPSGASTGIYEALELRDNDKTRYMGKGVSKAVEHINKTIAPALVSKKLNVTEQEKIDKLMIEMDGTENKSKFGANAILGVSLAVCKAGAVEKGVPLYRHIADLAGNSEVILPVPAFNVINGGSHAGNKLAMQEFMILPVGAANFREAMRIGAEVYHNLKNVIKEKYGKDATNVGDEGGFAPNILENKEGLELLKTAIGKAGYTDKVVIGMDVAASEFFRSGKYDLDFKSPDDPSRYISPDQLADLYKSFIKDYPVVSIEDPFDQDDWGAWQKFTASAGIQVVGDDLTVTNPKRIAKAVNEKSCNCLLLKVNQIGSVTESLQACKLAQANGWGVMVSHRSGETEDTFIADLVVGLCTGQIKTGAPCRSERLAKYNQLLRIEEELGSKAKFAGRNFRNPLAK
T1 sequence (P06733 2-434): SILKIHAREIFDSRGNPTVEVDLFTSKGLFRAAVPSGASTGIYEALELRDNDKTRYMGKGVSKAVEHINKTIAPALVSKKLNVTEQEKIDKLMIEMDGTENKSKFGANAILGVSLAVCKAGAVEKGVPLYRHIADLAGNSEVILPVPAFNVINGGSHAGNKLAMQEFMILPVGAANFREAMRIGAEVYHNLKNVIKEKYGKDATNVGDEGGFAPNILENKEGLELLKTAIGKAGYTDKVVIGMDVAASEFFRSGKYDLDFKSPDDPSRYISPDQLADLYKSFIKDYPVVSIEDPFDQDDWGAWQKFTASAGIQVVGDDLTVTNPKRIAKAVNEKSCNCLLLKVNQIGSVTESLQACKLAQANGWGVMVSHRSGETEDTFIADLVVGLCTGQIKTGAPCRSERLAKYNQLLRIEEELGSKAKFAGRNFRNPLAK

## NCCOCCOCCNC(=O)Cc1ccc(Nc2nc(NCc3ccc(F)cc3)nc(NCC3CCCCC3)n2)cc1 [ENOblock]
[1]
  competition by free compound for enolase binding to ENOblock affinity matrix: completely inhibited enolase binding to the ENOblock affinity matrix
[1]; silver stain, mass spectrometry
  binding of lysate proteins/enolase to compound affinity matrix: enolase in HCT116 cancer cell lysate binds to the ENOblock affinity matrix
Purified human enolase
  binding of purified enolase to compound affinity matrix: purified human enolase binds to the ENOblock affinity matrix; also recorded: could bind to purified human enolase
  competition by free compound for purified enolase binding to ENOblock affinity matrix: inhibited purified enolase binding to the ENOblock affinity matrix
[2]; OD 240 nm, 37° C., 10 min
  inhibition of purified enolase activity: dose-dependently inhibited the activity of purified enolase; also recorded: enolase activity can be inhibited by ENOblock dose-dependently
[2]; purified enolase
  enolase inhibitory concentration compared with sodium fluoride (NaF): markedly lower concentration than the wellknown enolase inhibitor
  treatment concentration reducing enolase activity to the level approximated with 1 mM NaF: 2.5 µM
[3]
  AKT expression: decreased the expression of AKT and Bcl-Xl
[4]; 10 μM for 96 h, DMSO control
  number of embryos showing cancer cell migration and metastasis (dissemination) from the yolk sac injection site: reduced the number of embryos showing migration and metastasis; also recorded: reduced cancer cell dissemination
[4]; 10 μM for 96 h, vs DMSO-treated group
  quantification of xenotransplanted cancer cell microfoci: significantly reduced cancer cell migration and metastasis
[4]; normoxia
  viability of xenotransplanted cancer cells: without noticeably affecting cancer cell viability
Zebrafish larvae; 10 μM, 4 h
  glucose uptake in larvae (2-NBDG fluorescence microscopy): increased glucose uptake in the zebrafish larvae
Zebrafish larvae; 72 hpf larvae, 10 μM, 4 h, vs 2-NBDG alone
  2-NBDG fluorescence signal intensity in the eye: induced significantly greater fluorescent tagged glucose uptake in the zebrafish eye
Zebrafish larvae; 72 hpf zebrafish
  2-NBDG signal in lysed larvae (fluorescent plate reader): induced glucose uptake
Macrophages [5]
  foam cell formation (Oil Red O staining, microscopy): inhibited foam cell formation
  foam cell formation (count of cells showing lipid accumulation): inhibited foam cell formation
Macrophages [6]
  cytotoxicity to macrophages (MTT absorbance 570 nm): not due to cytotoxicity
[7]
  hepatic PEPCK expression in vivo: inhibited PEPCK expression in adult zebrafish liver
